Where “and” joins values, the source holds several entries; their conditions need not be identical. Identical values can stand only once. Non-standard residues stand in square brackets, D forms with d. Residues, ends and D or L forms follow the SMILES beside them. *: point of attachment. dPhe(4-NHCONH2) = NC(=O)Nc1ccc(C[C@@H](N)C(=O)O)cc1; Dihydroorotyl(S) = O=C1C[C@@H](C(=O)*)NC(=O)N1; dPhe(4-Cl) = N[C@H](Cc1ccc(Cl)cc1)C(=O)O; Phe(4-NH2) = Nc1ccc(C[C@H](N)C(=O)O)cc1; d2Nal = N[C@H](Cc1ccc2ccccc2c1)C(=O)O; Lys(iPr) = CC(C)NCCCC[C@H](N)C(=O)O; d3Pal = N[C@H](Cc1cccnc1)C(=O)O
Assays:
male WT mice (C57BL/6J) = assay: Degarelix treatment of WT control mice (EF, plasma ANP and cGMP); type: in vivo, mouse; conditions: male WT vs untreated WT group
Procedure: (§1) Treatment was initiated at 4 weeks of age when mice were at risk for DCM. The EF was analyzed at 20 weeks when DCM untreated mice progressed to Stage D HF. […] This treatment also elevated EF in males WT vs. untreated WT group (Mann-Whitney test: P<0.01).

male DCM mice [1] = assay: Degarelix treatment in progressive DCM mouse model: cardiac function, remodeling, edema, HF; type: in vivo
Procedure: Ejection fraction (EF, %) (FIG. 4A), heart-to-body weight ratios, HW/BW (FIG. 4B), lung-to-body weight ratios, LW/BW, (FIG. 4C) and pleural effusion, (FIG. 4D) were analyzed in male mice with DCM and WT control mice (C57BL/6J) at 20 weeks of age corresponding to Stage D HF in non-treated DCM mice. Groups: Normal non-T-treated DCM mice (black, left bar); Low T (˜20%) DCM mice treated with degarelix, 15 mg/kg subcutaneous injection every 4 weeks (blue, right bar). Dotted line: Levels in WT congenic group (n=8). T plasma level analyzed by ELISA. Data (FIG. 4A-4C) analyzed by One-way-ANOVA with Tukey's multiple comparison test and represent mean t SEM. (FIG. 4D) analyzed by Fisher exact test.
To gain translational insights relevant to human DCM-HF, inventors analyzed the outcome of T-lowering therapy in a well-established mouse progressive DCM model on C57BL/6J strain with defined age-related HF stages (time points) for evaluation of systolic function, edema, blood sample collections, etc., in studies of male and female DCM mice. This animal model is normotensive and without kidney dysfunction, and arrhythmia, which excludes variables of blood pressure, arrhythmias, and kidney dysfunction.
as §1

male DCM mice [2] = assay: Plasma biomarkers (ELISA) in degarelix-treated DCM mice; type: in vivo, mouse; conditions: 20 weeks of age
Procedure: Ejection fraction (EF, %) (FIG. 4A), heart-to-body weight ratios, HW/BW (FIG. 4B), lung-to-body weight ratios, LW/BW, (FIG. 4C) and pleural effusion, (FIG. 4D) were analyzed in male mice with DCM and WT control mice (C57BL/6J) at 20 weeks of age corresponding to Stage D HF in non-treated DCM mice. Groups: Normal non-T-treated DCM mice (black, left bar); Low T ( 20%) DCM mice treated with degarelix, 15 mg/kg subcutaneous injection every 4 weeks (blue, right bar). Dotted line: Levels in WT congenic group (n=8). T plasma level analyzed by ELISA. Data (FIG. 4A-4C) analyzed by One-way-ANOVA with Tukey's multiple comparison test and represent mean t SEM. (FIG. 4D) analyzed by Fisher exact test. […] Groups: at 20 weeks of age=Stage D HF in non-castrated DCM mice. Normal T (100%) non-treated DCM mice (black, left bar); Low T ( 17%) castrated or degarelix-treated DCM mice (blue, right bar); Dotted line: Levels in WT congenic group (n=6-8). T plasma level analyzed by ELISA. Data analyzed by One-way-ANOVA with Tukey's multiple comparison test and represented as mean f SEM; +++P<0.001 in DCM vs. WT group; ****P<0.0001 in castrated vs non-castrated DCM groups. […] Plasma biomarkers levels were analyzed in littermate mice with and without DCM. […] Groups: Normal T, non-treated DCM mice (black, left bar); Low T ( 20%), DCM mice treated with degarelix, 15 mg/kg subcutaneous injection every 4 weeks (blue, right bar). Dotted line: level in WT congenic group (n=6). T plasma level analyzed by ELISA. Data analyzed by One-way-ANOVA with Tukey's multiple comparison test and represent mean t SEM; *=between DCM groups: **P<0.01; DCM groups vs. WT group: ++++P<0.0001; +++P<0.001.

humans and mice = conditions: cited from earlier work
[3] = test system: male and female mice with DCM and WT littermates; conditions: mouse, in vivo
castrated male DCM mice = assay: Partial restoration of T (implanted pellets) in castrated DCM mice; type: in vivo, mouse
Procedure: Ejection fraction (EF, %) was analyzed in littermate DCM male mice (on C57BL/6J background) at 20 weeks of age corresponding to Stage D heart failure (HF) in non-castrated DCM mice. […] Dotted line: level in WT congenic group (n=8). T plasma levels analyzed by ELISA. Data analyzed by One-way-ANOVA with Tukey's multiple comparison test and represent mean+/−SEM; *=between DCM groups; **P<0.001; +=DCM groups vs. WT group: ++++P<0.0001.
FIGS. 2A-2B show lowering testosterone (T) levels increases cGMP levels in plasma (FIG. 2A) and cytosol fraction of cardiac LV extract (FIG. 2B) of male DCM mice. cGMP was analyzed in littermate mice by ELISA; data were normalized to 100 ug of total protein in extracts. Groups: at 20 weeks of age=Stage D heart failure (HF) in non-castrated DCM mice. […] Dotted line: level in WT congenic group (n=8). T plasma levels analyzed by ELISA. Data analyzed by One-way-ANOVA with Tukey's multiple comparison test and represent mean+/−SEM; *=between DCM groups; **P<0.001; +=DCM groups vs. WT group: ++++P<0.0001.
Referring to FIG. 1, T suppression in male DCM mice (low level) by surgical castration (initiated at HF stage A) improves systolic dysfunction vs. non-castrated DCM group (normal level).

CC(=O)N[C@H](Cc1ccc2ccccc2c1)C(=O)N[C@H](Cc1ccc(Cl)cc1)C(=O)N[C@H](Cc1cccnc1)C(=O)N[C@@H](CO)C(=O)N[C@@H](Cc1ccc(NC(=O)[C@@H]2CC(=O)NC(=O)N2)cc1)C(=O)N[C@H](Cc1ccc(NC(N)=O)cc1)C(=O)N[C@@H](CC(C)C)C(=O)N[C@@H](CCCCNC(C)C)C(=O)N1CCC[C@H]1C(=O)N[C@H](C)C(N)=O [degarelix] (Ac-[d2Nal][dPhe(4-Cl)][d3Pal]S[Phe(4-NH2)](Dihydroorotyl(S))[dPhe(4-NHCONH2)]L[Lys(iPr)]P[dA]-NH2)
Ejection fraction (EF) (male WT mice (C57BL/6J); Mann-Whitney P<0.01): elevated EF
plasma ANP levels (male WT mice (C57BL/6J); P<0.001 Mann-Whitney): elevated ANP and cGMP plasma levels
plasma cGMP levels (male WT mice (C57BL/6J); P<0.001 Mann-Whitney): elevated ANP and cGMP plasma levels
heart failure (HF) (male DCM mice [1]; 20 weeks of age): attenuates HF
heart-to-body weight ratio, HW/BW (male DCM mice [1]; 20 weeks of age, FIG. 4B, P<0.001): reduces pathologically elevated heart
lung-to-body weight ratio, LW/BW (pulmonary edema) (male DCM mice [1]; 20 weeks of age, FIG. 4C, P<0.01): reduced pulmonary edema
pleural effusion (male DCM mice [1]; 20 weeks of age, FIG. 4D, P<0.05, Fisher exact test): reduction
Ejection fraction (EF) (male DCM mice [1]; treatment from 4 weeks of age, analyzed at 20 weeks (Stage D HF in untreated), vs untreated DCM, FIG. 4A): significantly improved EF
plasma norepinephrine levels (male DCM mice [2]; FIG. 5A): lowering norepinephrine plasma levels
plasma renin activity (PRA) levels (male DCM mice [2]; FIG. 5C): normalization of PRA levels
pro-renin receptor ((P)RR) levels (male DCM mice [2]; FIG. 5E): normalization of (P)RR levels
total renin levels in circulation (male DCM mice [2]; FIG. 5F): did not affect total renin levels
plasma ANP levels (analyzed as NT-ANP) (male DCM mice [2]; degarelix 15 mg/kg s.c. every 4 weeks, FIG. 6A): increases plasma levels of ANP
plasma cGMP levels (male DCM mice [2]; degarelix 15 mg/kg s.c. every 4 weeks, FIG. 6B): increases plasma levels
T plasma level (relative to Normal T, 100%) (male DCM mice [2]; degarelix 15 mg/kg subcutaneous every 4 weeks, ELISA): ~20% and ~17%
circulating T levels (humans and mice; humans and mice, reversible, without T surge and clinical side effects): to surgical castration level
muscle mass (humans and mice; in vivo): does not affect muscle mass
body weights [3]: did not influence
motor function [3]: did not influence

C[C@]12CC[C@H]3[C@@H](CCC4=CC(=O)CC[C@@]43C)[C@@H]1CC[C@@H]2O [T, testosterone]
cGMP levels in plasma (castrated male DCM mice; Reduced T vs Low T castrated DCM mice, FIG. 2A): lowered cGMP levels
cGMP levels in cardiac LV tissue (castrated male DCM mice; Reduced T vs Low T castrated DCM mice, FIG. 2B): lowered cGMP levels
T plasma level (relative to Normal T, 100%) (castrated male DCM mice; castrated DCM mice with partially restored T, 20 weeks of age, ELISA): ~60%
Ejection fraction (EF) (castrated male DCM mice; castrated DCM mice, implanted pellets for 3 months, vs castrated (Low T), FIG. 1): trend toward reduced EF
